Source: patent publication US9862730B2, “Imidazothiadiazole derivatives as protease activated receptor 4 (PAR4) inhibitors for treating platelet aggregation” (BRISTOL-MYERS SQUIBB COMPANY, priority 2012, dated 2018)

Biological target: PAR4 (Homo sapiens (Human), UniProt Q96RI0)
Experiment: FLIPR assay in PAR4-expressing HEK293 cells (PAR4 antagonist activity, calcium mobilization)
Assay type: cell-based
Details: FLIPR assay as described in Example A
Excerpt: The FLIPR assay is an exemplary in vitro assay for measuring the activity of the PAR4 antagonists of the present invention. In this assay, intracellular calcium mobilization is induced in PAR4 expressing cells by a PAR4 agonist and calcium mobilization is monitored. See, e.g., Example A.
HEK293 cells stably expressing PAR4 were generated by a standard method of transfection of human […] cDNA expression vector or by RAGE technology from Athersys Inc. (Cleveland, Ohio) and selected based on PAR4 protein expression of mRNA expression. […] These cells express endogenous PAR1 and can elicit calcium signal upon stimulation with PAR1 agonist peptide.
Counter screens for agonist activity and PAR1 antagonist activity were also performed. Briefly, HEK293 EBNA PAR4 clone 20664.1J cells were plated 24 hrs. prior to experiment in 384 well, Poly-D-Lysine coated, black, clear bottom plates (Greiner Bio-One, Monroe, N.C.). Cells were plated at 20,000 cells/well in 20 μl growth medium and incubated at 37° C. with 5% CO2 overnight. At time of assay, media was replaced with 40 μl 1× Hank's Buffered Saline Solution (HBSS) (with 10 mM HEPES) and 20 μl test compound also diluted in 1×HBSS buffer was added at various concentrations and 0.67% DMSO final concentration on the FDSS for agonist measurement. The cells were then incubated for 30 minutes at room temperature followed by addition of 20 μl of agonist peptide for antagonist measurement on the FDSS.
As indicated above, the FLIPR assay, an in vitro assay, measures the PAR4 antagonist activity of compounds tested as described in Example A.

Chain of PAR4 (Q96RI0 18-385): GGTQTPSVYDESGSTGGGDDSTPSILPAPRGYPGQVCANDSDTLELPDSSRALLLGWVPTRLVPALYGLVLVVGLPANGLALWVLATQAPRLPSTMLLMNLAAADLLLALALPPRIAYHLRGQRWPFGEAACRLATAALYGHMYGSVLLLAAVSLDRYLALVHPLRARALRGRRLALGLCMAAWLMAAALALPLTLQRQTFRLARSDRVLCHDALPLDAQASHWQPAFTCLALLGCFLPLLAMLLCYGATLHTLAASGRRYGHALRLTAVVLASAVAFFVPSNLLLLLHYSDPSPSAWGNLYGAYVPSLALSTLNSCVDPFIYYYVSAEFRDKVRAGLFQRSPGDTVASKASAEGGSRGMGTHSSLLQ

Row | IC50 [nM] | Compound
1 | 698 | CC(F)(F)c1nn2cc(-c3cc4c(OCc5cccc(OCc6ccccc6)c5)cc(OS(=O)(=O)C(F)(F)F)cc4o3)nc2s1 [Example 422]
2 | 2.81 | COc1ccc2c(C)c(-c3cn4nc(SC)sc4n3)oc2c1OC [Example 25]
3 | 3.12 | COc1cc(OCc2cccc(OCc3c(OC)cccc3OC)c2)c2cc(-c3cn4nc(OC)sc4n3)oc2c1 [Example 388]
4 | 37.8 | Fc1ccc2cc(-c3cn4nc(Br)sc4n3)oc2c1 [Example 264]
5 | 3400 | CCc1nn2cc(-c3nc4ccc(OCC5CCCCC5)cc4o3)nc2s1 [Example 76]
6 | 3.61 | COc1cc(OCc2ccc(C)c(OCc3ccccc3)c2)c2cc(-c3cn4nc(OC)sc4n3)oc2c1 [Example 352]
7 | 1050 | COc1nn2cc(-c3nc4ccc(C)cc4s3)nc2s1 [Example 197]
8 | 9.64 | COc1nn2cc(-c3nc4cc(F)ccc4s3)nc2s1 [Example 194]
9 | 509 | Cc1cccc2oc(-c3cn4nc(C(C)(F)F)sc4n3)nc12 [Example 122, 2-(2-(1,1-Difluoroethyl)imidazo[2,1-b][1,3,4]thiadiazol-6-yl)-4-methylbenzo[d]oxazole]
10 | 0.97 | COc1cc(OCc2cccc(OCc3ccccc3)c2)c2cc(-c3cn4nc(SC)sc4n3)oc2c1 [Example 345]
11 | 1120 | CC(F)(F)c1nn2cc(-c3nc4c([N+](=O)[O-])cccc4o3)nc2s1 [Example 123, 2-(2-(1,1-Difluoroethyl)imidazo[2,1-b][1,3,4]thiadiazol-6-yl)-4-nitrobenzo[d]oxazole]
12 | 144 | CSc1nn2cc(-c3cc4cccc(Cl)c4o3)nc2s1 [Example 23]
13 | 152 | Cc1ccc2oc(-c3cn4nc(C(C)(F)F)sc4n3)cc2c1 [Example 232]
14 | 21.8 | COCCOc1cccc2oc(-c3cn4nc(SC)sc4n3)cc12 [Example 268]
15 | 10.4 | CSc1nn2cc(-c3nc4cc(F)ccc4o3)nc2s1 [Example 126]
16 | 122 | CCc1nn2cc(-c3nc4ccc(Cl)cc4o3)nc2s1 [Example 40]
17 | 911 | CSc1nn2cc(-c3nc4ccc(OCc5ccncc5)cc4o3)nc2s1 [Example 146]
18 | 6.63 | COc1ccc2nc(-c3cn4nc(SC)sc4n3)oc2c1 [Example 116, 6-Methoxy-2-(2-(methylthio)imidazo[2,1-b][1,3,4]thiadiazol-6-yl)benzo[d]oxazole]
19 | 103 | CCc1nn2cc(-c3nc4ccc(OCc5ccccc5)cc4o3)nc2s1 [Example 67]

Row | IC50 [nM] | Compound
20 | 187 | COc1nn2cc(-c3cc4cc(OC(F)(F)F)ccc4o3)nc2s1 [Example 98]
21 | 2.98 | COc1cc(OCc2cccc(OCc3ccc(F)cc3Cl)c2)c2cc(-c3cn4nc(OC)sc4n3)oc2c1 [Example 369]
22 | 78.8 | COc1cc(OC(C)C)c2cc(-c3cn4nc(Br)sc4n3)oc2c1 [Example 299]
23 | 1.28 | COc1cc(Cl)cc(COc2cccc(COc3cc(OC)cc4oc(-c5cn6nc(OC)sc6n5)cc34)c2)c1 [Example 401]
24 | 191 | CSc1nn2cc(-c3nc4ccc(OCCF)cc4o3)nc2s1 [Example 118, 6-(2-Fluoroethoxy)-2-(2-(methylthio)imidazo[2,1-b][1,3,4]thiadiazol-6-yl)benzo[d]oxazole]
25 | 383 | Cc1ccc2cc(-c3cn4nc(C(F)(F)Cl)sc4n3)oc2c1 [Example 244]
26 | 27.8 | COc1ccc2oc(-c3cn4nc(OC)sc4n3)nc2c1 [Example 142]
27 | 51.1 | CSc1nn2cc(-c3cc4c(OCc5cccc(OCc6ccccc6)c5)cc(OS(=O)(=O)C(F)(F)F)cc4o3)nc2s1 [Example 420]
28 | 290 | CC(F)(F)c1nn2cc(-c3cc4ccc(OCc5ccccc5)cc4o3)nc2s1 [Example 241]
29 | 149 | CCc1nn2cc(-c3cc4cccc(OCC#N)c4o3)nc2s1 [Example 53]
30 | 307 | CSc1nn2cc(-c3cc4ccc(C(=O)NCc5ccccc5)cc4o3)nc2s1 [Example 220, N-Benzyl-2-(2-(methylthio)imidazo[2,1-b][1,3,4]thiadiazol-6-yl)benzofuran-6-carboxamide]
31 | 28.8 | CC(F)(F)c1nn2cc(-c3cc4ccc(Cl)cc4o3)nc2s1 [Example 237]
32 | 1650 | CSc1nn2cc(-c3nc4c(OCc5ccc(Cl)cc5)cccc4o3)nc2s1 [Example 157]
33 | 7.47 | COc1cc(OCc2cc(OCc3ccccc3)cc(C(F)(F)F)c2)c2cc(-c3cn4nc(OC)sc4n3)oc2c1 [Example 400]
34 | 111 | COc1nn2cc(-c3cc4c(O)cccc4o3)nc2s1 [Example 211, 2-(2-Methoxyimidazo[2,1-b][1,3,4]thiadiazol-6-yl)benzofuran-4-ol]
35 | 12.5 | CSc1nn2cc(-c3cc4c(Cl)nccc4o3)nc2s1 [Example 221, 4-Chloro-2-(2-(methylthio)imidazo[2,1-b][1,3,4]thiadiazol-6-yl)furo[3,2-c]pyridine]
36 | 106 | Cc1cc(C)c2cc(-c3cn4nc(Br)sc4n3)oc2c1 [Example 296]
37 | 2.01 | CCOc1cc(OC)cc2oc(-c3cn4nc(OC)sc4n3)cc12 [Example 206]

Second part, the molecule before the results:

Row | Compound | IC50 [nM]
38 | COc1cc(OCc2cccc(OCc3cccc(F)c3F)c2)c2cc(-c3cn4nc(OC)sc4n3)oc2c1 [Example 314] | 0.72
39 | CSc1nn2cc(-c3nc4ccc(F)cc4s3)nc2s1 [Example 191] | 30.7
40 | Cc1cc2nc(-c3cn4nc(C(C)(F)F)sc4n3)oc2cc1C [Example 179] | 225
41 | COc1cc(OCc2cccc(OCc3ccc(Cl)cc3Cl)c2)c2cc(-c3cn4nc(OC)sc4n3)oc2c1 [Example 378] | 7.38
42 | COc1cc(OCc2cccc(OCc3ccc(OC)c(OC)c3)c2)c2cc(-c3cn4nc(OC)sc4n3)oc2c1 [Example 389] | 0.73
43 | COc1ccc2oc(-c3cn4nc(OC)sc4n3)cc2c1 [Example 93] | 222
44 | COc1cc(OC[C@@H]2CCCN2C(=O)OC(C)(C)C)c2cc(-c3cn4nc(OC)sc4n3)oc2c1 [Example 342-343] | 253
45 | CC(F)(F)c1nn2cc(-c3cc4c(F)cccc4o3)nc2s1 [Example 273] | 180
46 | COc1cc(Br)c2oc(-c3cn4nc(SC)sc4n3)cc2c1 [Example 283] | 2710
47 | CC(F)(F)c1nn2cc(-c3cc4ccc(F)cc4o3)nc2s1 [Example 231] | 22.3
48 | COc1nn2cc(-c3cc4c(OCc5cccc(OCc6ccccc6)c5)cc(OC(F)F)cc4o3)nc2s1 [Example 416, 6-(4-((3-(Benzyloxy)benzyl)oxy)-6-(difluoromethoxy)benzofuran-2-yl)-2-methoxyimidazo[2,1-b][1,3,4]thiadiazole] | 1.09
49 | CCc1nn2cc(-c3nc4ccc(OCC5CC5)cc4o3)nc2s1 [Example 74] | 681
50 | COc1nn2cc(-c3cc4cccc(C)c4o3)nc2s1 [Example 89] | 28.2
51 | COc1cc(OCc2cccc(OCc3ccccc3I)c2)c2cc(-c3cn4nc(OC)sc4n3)oc2c1 [Example 379] | 7.84
52 | COc1cc(OCc2cccc(OCc3ccc(F)cc3F)c2)c2cc(-c3cn4nc(OC)sc4n3)oc2c1 [Example 374] | 2.3
53 | COc1cc2oc(-c3cn4nc(C(C)(F)F)sc4n3)cc2cc1Br [Example 272] | 29.1

Row | Compound | IC50 [nM]
54 | CSc1nn2cc(-c3nc4ccccc4s3)nc2s1 [Example 4, 2-(2-(Methylthio)imidazo[2,1-b][1,3,4]thiadiazol-6-yl)benzo[d]thiazole] | 12.9
55 | Clc1cc(Cl)c2cc(-c3cn4nc(Br)sc4n3)oc2c1 [Example 288] | 94.1
56 | COc1nn2cc(-c3cc4ccc(C)cc4o3)nc2s1 [Example 90] | 4.7
57 | COc1nn2cc(-c3nc4cc(C)c(C)cc4o3)nc2s1 [Example 136] | 38.9
58 | CCc1nn2cc(-c3cc4cccc(OC)c4o3)nc2s1 [Example 37] | 8.51
59 | COc1cc(OCc2cccc(OCc3ccccc3OC(F)(F)F)c2)c2cc(-c3cn4nc(OC)sc4n3)oc2c1 [Example 322] | 9.97
60 | CSc1nn2cc(-c3nc4cc(F)ccc4s3)nc2s1 [Example 182, 5-Fluoro-2-(2-(methylthio)imidazo[2,1-b][1,3,4]thiadiazol-6-yl)benzo[d]thiazole] | 19.4
61 | CSc1nn2cc(-c3nc4ccc(OCc5ccc(Cl)cc5)cc4o3)nc2s1 [Example 169] | 70.5
62 | COc1nn2cc(-c3cc4cc(C)ccc4o3)nc2s1 [Example 95] | 6.89
63 | CSc1nn2cc(-c3nc4ccc(OC(F)(F)F)cc4s3)nc2s1 [Example 180, 2-(2-(Methylthio)imidazo[2,1-b][1,3,4]thiadiazol-6-yl)-6-(trifluoromethoxy)benzo[d]thiazole] | 189
64 | CCOc1cc(OCc2cccc(OCc3ccccc3)c2)c2cc(-c3cn4nc(SC)sc4n3)oc2c1 [Example 423] | 15.1
65 | Fc1ccc2cc(-c3cn4nc(C(F)(F)Cl)sc4n3)oc2c1 [Example 243] | 364
66 | CSc1nn2cc(-c3nc4c(OCc5ccncc5)cccc4o3)nc2s1 [Example 167] | 785
67 | CSc1nn2cc(-c3cc4cccc(F)c4o3)nc2s1 [Example 257] | 50.2
68 | COc1ccc(COc2cccc3oc(-c4cn5nc(SC)sc5n4)nc23)cc1 [Example 172] | 814
